Measured values reported in paper PMC6804997 (PLoS ONE, 2019).

Assays:
[1] = system: liver, kidney, spleen, heart and lung tissues of mice; assay: Histological examination of organs from normal mice given F7; format: in vivo; settings: oral F7 40 mg/kg/d for 3 days, without glycerol injection
Method: We firstly examined whether the mice model of glycerol-induced AKI was successfully established, and tested the protective effect of F7 at a dose of 40 mg/kg/d for 3 days on renal function and pathological changes. […] We also evaluated the liver, kidney, spleen, heart and lung tissues of mice with oral administration of F7 at the same dose as that in F7+glycerol group for 3 days, but without glycerol injections.
Supplementary file pone.0224158.s002.tif: S2 Fig Histological examinations of different organs from the normal mice administrated with F7. Photomicrographs (×200) illustrated H&E staining of the heart, liver, spleen, lung and kidney tissues from mice with oral administration of F7 at a dose of 40 mg/kg/d for 3 days but without glycerol injection. (TIF) Click here for additional data file.

HK-2 cells = assay: Annexin V/PI flow cytometry of myoglobin-stimulated HK-2 cells; format: cell-based, Human; settings: F7 […], 5 nM and 10 nM; Mb 200 μM, 24 hrs
Method: Human renal proximal tubule cell line (HK-2) cells were purchased from Shanghai Institute of Biochemistry and Cell Biology, Shanghai, China and maintained in DMEM/F12 (Hyclone, Beijing, China) supplemented with 10% fetal bovine serum (FBS, Hyclone, Australia) and 1% penicillin and streptomycin at 37°C under humidified atmosphere of 5% carbon dioxide. Then cells were seeded on six-well plates (Shanghai Sunub Bio-Tech Development Inc., Shanghai, China) at a density of 200,000 cells per well, divided into four groups at exponential phase: the control group (cells incubated with DMEM/F12+10%FBS), the model group (cells incubated with 200 μM ferrous myoglobin (M0630, Sigma-Aldrich, St. […]
Cell apoptosis was evaluated by flow cytometry using an Annexin V-FITC apoptosis analysis kit (AO-2001-02P-H, Tianjin Sungene Biotech Co., Ltd, Tianjin, China). After the four group of cells were cultured under the condition as described above for 24 hours, they were digested by trypsin, collected, and washed three times with PBS diluted 1×binding buffer (1ml per tube). […] After being supplemented to 500 μL using cold PBS followed by gentle vortex, samples were ready to be testes. Apoptosis signals were detected using a CytoFLEX by Beckman & Coulter.

[2] = system: rhabdomyolysis-induced AKI in glycerol-injected mice; assay: Glycerol-induced rhabdomyolysis AKI mouse model with F7 pretreatment; format: in vivo, C57BL/6 mice
Method: After one week of adoption to the housing conditions, the mice were randomly divided into three groups (n = 8): control, glycerol, and glycerol+HDAC6 inhibitor (F7). For the latter two groups, a single intramuscular injection of 50% glycerol dissolved in 0.9% normal saline (10 μl/g) was divided between bilateral back limbs to induce rhabdomyolysis-induced AKI model. The mice in control group received the same dose of saline injection at the place of glycerol. Before glycerol injection, mice in pretreatment group were orally administrated with F7 (dissolved in DEG and diluted with 0.9% saline) at a dose of 40mg/kg/d (200 μl solution for 28g) for 3 days. For control and glycerol groups, mice were treated with the same dose of saline.
All the mice were euthanized via pentobarbital sodium injection (50 mg/kg, i.p.). Terminal blood samples were collected and serum samples were stored at -80°C. Kidney tissues were divided and respectively removed into 10% phosphate buffered formalin for histological staining, and into liquid nitrogen follows by storage at -80°C for further quantitative analysis and immunofluorescence staining.
The serum level of creatinine kinase (CK), blood urea (UREA) and serum creatinine (sCr) were tested using high performance liquid chromatography (HPLC) by Institute of Drug Clinical Trial and the GCP center of West China Hospital of Sichuan University.
Paraffin-embedded kidney tissue samples were cut into 4-um sections and stained with haematoxylin and erosin (H&E) and periodic acid-Schiff (PAS) staining. These sections were viewed using light microscopy at magnifications of ⊆200 and ⊆400 respectively, and semiquantitative estimation of renal tubular damage was performed on a scale from 0 to 4 to grade the percentage of injured/damaged renal tubules: 0 for 0%, 0.5% for <10%, 1 for 10–25%, 2 for 26–50%, 3 for 51–75% and 4 for 76–100%[22]. At least 10 areas were randomly selected in the cortex per slide.
Kidney tissue samples were mounted in O.C.T. compound medium (Tissue-Tek) for cryosectioning (4 μm). Sections were immediately fixed in 10% buffered formalin, washed, dehydrated and stored at -20°C. Before immunofluorescence staining, the tissue sections were rehydrated and blocked with 10% horse medium (diluted with PBS solution) for 1 hour at room temperature and incubated at 4°C overnight with indicated primary antibodies. Then sections were exposed to second antibodies labeled with Cy5 red or FITC green (Jackson ImmunoResearch Inc., West Grove, PA, United States). The nuclei were counterstained with DAPI (1:500, Life Technologies Corporation, OR, United States). The images were captured with AxioCam HRc digital camera (Carl Zeiss).
Kidney tissue or cultured cell samples were sufficiently lysed in the mixture of RIPA buffer (50 mM Tris (pH7.4), 150 mM NaCl, 1% TritonX-100, 1% sodium deoxycholate, 0.1% SDS) containing 4% cocktail proteinase inhibitor (Roche, Switzerland) on ice. After centrifuged at 13,000 rpm for 15 min at 4°C, supernate of the homogenate were collected for protein quantification. Protein equivalent to 50 ug were loaded into 10–12% SDS-PAGE gels for electrophoretic separation, and then transferred to polyvinylidene difluoride (PVDF) membranes (0.2 μm, Bio-Rad Laboratories, Inc.). After protein blotting, membranes were blocks using 5% non-fat dried milk for 1h at room temperature, then probed with primary antibodies at 4°C overnight, and incubated with secondary antibodies for 1h at room temperature. […]

[3] = glycerol+F7 vs glycerol group, F7 40 mg/kg/d oral for 3 days
[4] = western blot, F7 40 mg/kg/d for 3 days

Cc1nc(N(C)c2ccc(Oc3ccc(C(=O)NO)cn3)cc2)c2ccccc2n1 [F7, N-hydroxy-6-(4-(methyl(2-methylquinazolin-4-yl)amino)phenoxy)nicotinamide]
organ damage (histological sections of liver, kidney, spleen, heart and lung) [1]: did not exhibited organ damage | growth of HK-2 cells under stimulation of myoglobin (HK-2 cells): improved growth of HK-2 cells under stimulation of myoglobin (Mb) in a dose-dependent manner | IL-β and TNF-α in serum and kidney lysates ([2]; ELISA, F7 40 mg/kg/d for 3 days): decreased | NGAL expression in tubules (immunofluorescence staining) ([2]; F7 40 mg/kg/d for 3 days): largely diminished | pathological injuries (tubular damage, H&E and PAS staining) ([2]; F7 40 mg/kg/d oral for 3 days pretreatment): effectively alleviated | Serum creatine kinase (CK) ([2]; glycerol+F7 group vs control, 24 hours after glycerol injection, F7 40 mg/kg/d oral for 3 days): markedly elevated | serum creatinine (sCr) [2, 3]: remarkably decreased | serum urea (UREA) [2, 3]: remarkably decreased | NGAL mRNA expression and protein expression ([2]; real-time PCR and immunoblot, F7 40 mg/kg/d for 3 days): markedly reduced | mRNA level of IL-6 and TNF-α in kidney ([2]; real-time PCR, F7 40 mg/kg/d for 3 days): significantly decreased | expression of HDAC6 in the damaged kidney ([2]; western blot and immunofluorescence, F7 40 mg/kg/d for 3 days): significantly inhibited | IκBα phosphorylation in kidney [2, 4]: decreased | NF-κB p65 phosphorylation in kidney [2, 4]: effectively down-regulated | acetylation of histone H3 and α-tubulin in kidney [2, 4]: enhanced | p38 phosphorylation in kidney [2, 4]: effectively inhibited | proinflammatory cytokines IL-6 and IL-β protein levels in kidney [2, 4]: remarkably down-regulated | total ERK1/2 expression in kidney [2, 4]: effectively inhibited | ERK1/2 phosphorylation in kidney ([2]; western blot, F7 treatment group): no significant ERK1/2 phosphorylation reduction
